Data taken from patent US5025033A, “Alkylene diamines” (Takeda Chemical Industries, Ltd., priority 1988, dated 1991).
Where a name gives a salt, the structure may show the parent alone.

The molecules below were run against T1, Acetylcholinesterase (Rattus norvegicus, UniProt P37136) (assay: Acetylcholinesterase inhibiting activity using (acetyl-[3H])-acetylcholine, S1 fraction of rat cerebral cortex homogenate). Details: rat cerebral cortex homogenate S1 fraction; 30 minutes of incubation; read-out: Acetylcholinesterase inhibiting activity IC50.
T1 construct: the S1 fraction of a male Wistar rat cerebral cortex homogenate was used as a cholinesterase source; from tissue; host or cells: male Wistar rat cerebral cortex homogenate, S1 fraction
T1 sequence (P37136 32-614): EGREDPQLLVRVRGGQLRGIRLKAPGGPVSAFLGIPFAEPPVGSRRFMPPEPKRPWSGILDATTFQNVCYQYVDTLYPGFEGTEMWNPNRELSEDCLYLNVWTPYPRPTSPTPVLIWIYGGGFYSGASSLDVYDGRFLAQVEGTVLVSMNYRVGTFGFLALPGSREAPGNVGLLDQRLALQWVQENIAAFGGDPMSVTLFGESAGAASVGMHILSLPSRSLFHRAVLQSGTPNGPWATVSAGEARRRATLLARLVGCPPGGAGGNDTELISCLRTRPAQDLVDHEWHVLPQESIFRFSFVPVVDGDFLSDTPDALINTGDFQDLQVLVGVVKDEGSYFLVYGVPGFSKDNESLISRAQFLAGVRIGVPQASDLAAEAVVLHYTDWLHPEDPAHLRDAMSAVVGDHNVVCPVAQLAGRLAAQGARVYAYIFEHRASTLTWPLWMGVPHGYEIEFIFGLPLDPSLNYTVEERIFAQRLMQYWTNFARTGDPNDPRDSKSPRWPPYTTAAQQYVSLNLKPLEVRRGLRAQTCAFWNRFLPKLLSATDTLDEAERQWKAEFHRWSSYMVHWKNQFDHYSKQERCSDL
Type: biochemical, male Wistar rat
Procedure: The compounds according to the invention were examined for cholinesterase inhibiting activity using (acetyl-[^3 H])-acetylcholine. Thus, the S1 fraction of a male Wistar rat cerebral cortex homogenate was used as a cholinesterase source, and (acetyl-[^3 H])-acetylcholine (as substrate) and each test compound according to the invention were added and, after 30 minutes of incubation, the reaction was terminated. A toluene type scintillator was added, and the mixture was shaken, whereby the reaction product [^3 H]-acetic acid was transferred to the toluene layer. The cholinesterase activity was determined by counting said [^3 H]-acetic acid with a liquid scintillation counter.
The cholinesterase inhibiting activity of each test compound was expressed in terms of 50% inhibitory concentration (IC50).
In the case of `CN(CCCCN1C(=O)c2ccc([N+](=O)[O-])cc2C1=O)Cc1ccccc1` [Compound 1, 2-[4-(N-Benzyl-N-methyl)aminobutyl]-5-nitro-1H--isoindole-1,3(2H)-dione hydrochloride], the IC50 is reported as 9500 nM. `CN(CCCCCN1C(=O)c2ccc([N+](=O)[O-])cc2C1=O)Cc1ccccc1` [Compound 2-2] showed an IC50 of 1400 nM. Molecule `CCN(CCCCN1C(=O)c2ccc([N+](=O)[O-])cc2C1=O)Cc1ccccc1` [Compound 2-3] has an IC50 of 250 nM. With `O=C1c2ccc([N+](=O)[O-])cc2C(=O)N1CCCCN(CCO)Cc1ccccc1` [Compound 2-4] the IC50 was 1500 nM. Molecule `O=C1c2ccc([N+](=O)[O-])cc2C(=O)N1CCCCN1CCc2ccccc2C1` [Compound 2-6] has an IC50 of 18000 nM. For `CC(C)N(CCCCN1C(=O)c2ccc([N+](=O)[O-])cc2C1=O)Cc1ccccc1` [Compound 2-7], the IC50 was 490 nM. `CN(CCCCCCN1C(=O)c2ccc([N+](=O)[O-])cc2C1=O)Cc1ccccc1` [Compound 2-9] gave an IC50 of 480 nM. Work on `CN(CCCCCCCN1C(=O)c2ccc([N+](=O)[O-])cc2C1=O)Cc1ccccc1` [Compound 2-10] yielded an IC50 of 1800 nM. `CCCCN(CCCCN1C(=O)c2ccc([N+](=O)[O-])cc2C1=O)Cc1ccccc1` [Compound 2-11] gave an IC50 of 1900 nM. For `CC(C)N(CCCCCN1C(=O)c2ccc([N+](=O)[O-])cc2C1=O)Cc1ccccc1` [Compound 2-12], the IC50 was 830 nM. For `CCN(CCCN1C(=O)c2ccc([N+](=O)[O-])cc2C1=O)Cc1ccccc1` [Compound 2-13], the IC50 was 10000 nM. `CCN(CCCCCCN1C(=O)c2ccc([N+](=O)[O-])cc2C1=O)Cc1ccccc1` [Compound 2-14] gave an IC50 of 660 nM. With `CCN(CCCCCCCN1C(=O)c2ccc([N+](=O)[O-])cc2C1=O)Cc1ccccc1` [Compound 2-15] the IC50 was 4600 nM. `CCCN(CCCCN1C(=O)c2ccc([N+](=O)[O-])cc2C1=O)Cc1ccccc1` [Compound 2-16] showed an IC50 of 1900 nM. `CCN(CCCCCN1C(=O)c2ccc([N+](=O)[O-])cc2C1=O)Cc1ccc(C)cc1` [Compound 2-17] gave an IC50 of 370 nM. Molecule `CCN(CCCCCN1C(=O)c2ccc([N+](=O)[O-])cc2C1=O)Cc1ccc(OC)cc1` [Compound 2-18] has an IC50 of 270 nM. For `CCN(CCCCCN1C(=O)c2ccc([N+](=O)[O-])cc2C1=O)Cc1ccc(Cl)cc1` [Compound 2-19], the IC50 was 240 nM. In the case of `CCN(CCCCCN1C(=O)c2ccc([N+](=O)[O-])cc2C1=O)Cc1cccc(Cl)c1` [Compound 2-20], the IC50 is reported as 240 nM. `CCN(CCCCCN1C(=O)c2ccc([N+](=O)[O-])cc2C1=O)Cc1ccccc1Cl` [Compound 2-21] gave an IC50 of 130 nM. For `CCN(CCCCCN1C(=O)c2ccc([N+](=O)[O-])cc2C1=O)Cc1ccccc1F` [Compound 2-22], the IC50 was 270 nM. With `CCN(CCCCCN1C(=O)c2ccc([N+](=O)[O-])cc2C1=O)Cc1ccccc1C` [Compound 2-23] the IC50 was 110 nM. In the case of `CCN(CCCCCN1C(=O)c2ccc([N+](=O)[O-])cc2C1=O)Cc1ccccc1[N+](=O)[O-]` [Compound 2-24], the IC50 is reported as 490 nM. Molecule `CCN(CCCCCN1C(=O)c2ccc([N+](=O)[O-])cc2C1=O)Cc1ccccc1OC` [Compound 2-25] has an IC50 of 28 nM. With `CCN(CCCCCN1C(=O)c2ccc([N+](=O)[O-])cc2C1=O)Cc1cccc(OC)c1` [Compound 2-26] the IC50 was 45 nM. With `CCN(CCCCCN1C(=O)c2ccc([N+](=O)[O-])cc2C1=O)Cc1cccc(OC)c1OC` [Compound 2-27] the IC50 was 270 nM. Work on `CCN(CCCCCN1C(=O)c2ccc([N+](=O)[O-])cc2C1=O)Cc1cccc2ccccc12` [Compound 2-28] yielded an IC50 of 110 nM. For `CN(CCCCN1C(=O)c2ccc(N)cc2C1=O)Cc1ccccc1` [Compound 3, 5-Amino-2-[4-(N-benzyl-N-methyl)aminobutyl]-1H-isoindole-1,3(2H)-dione hydrochloride], the IC50 was 34000 nM. Molecule `CN(CCCCN1C(=O)c2ccc(NC(=O)c3ccccc3)cc2C1=O)Cc1ccccc1` [Compound 4, 2-[4-(N-Benzyl-N-methyl)aminobutyl]-5-benzoylamino-1H-isoindole-1,3(2H)-dione] has an IC50 of 11000 nM. With `CC(=O)Nc1ccc2c(c1)C(=O)N(CCCCN(C)Cc1ccccc1)C2=O` [Compound 5-1] the IC50 was 11000 nM. `Cc1ccc(S(=O)(=O)Nc2ccc3c(c2)C(=O)N(CCCCN(C)Cc2ccccc2)C3=O)cc1` [Compound 5-2] showed an IC50 of 37000 nM. Work on `CN(CCCCN1C(=O)c2ccc(NS(=O)(=O)Cc3ccccc3)cc2C1=O)Cc1ccccc1` [Compound 5-3] yielded an IC50 of 9200 nM. Work on `O=C1c2ccc([N+](=O)[O-])cc2C(=O)N1CCCCNCc1cccc2ccccc12` [Compound 8-2] yielded an IC50 of 2900 nM. With `CN(CCCCNC(=O)/C=C/c1ccc([N+](=O)[O-])cc1)Cc1ccccc1` [Compound 9, (E)-N-[4-(N-Methyl-N-benzyl)aminobutyl]-3-(4-nitrophenyl)-2-propenamide] the IC50 was 14000 nM. In the case of `CCN(CCCCCN1C(=O)c2ccc(N)cc2C1=O)Cc1ccccc1` [Compound 10, 5-Amino-2-[5-(N-benzyl-N-ethyl)aminopentyl]-1H -isoindole-1,3(2H)-dione dihydrochloride], the IC50 is reported as 1200 nM. Molecule `CCN(CCCCCN1C(=O)c2ccc(NC(=O)c3ccccc3)cc2C1=O)Cc1ccccc1` [Compound 11-2] has an IC50 of 730 nM. In the case of `CCN(CCCCCN1C(=O)c2ccc(NC(=O)Cc3ccccc3)cc2C1=O)Cc1ccccc1` [Compound 11-3], the IC50 is reported as 1500 nM. `CCN(CCCCCN1C(=O)c2ccc(NS(=O)(=O)c3ccc(C)cc3)cc2C1=O)Cc1ccccc1` [Compound 11-4] was tested, and the IC50 was 2200 nM. `CCN(CCCCCN1C(=O)c2ccc(NS(=O)(=O)Cc3ccccc3)cc2C1=O)Cc1ccccc1` [Compound 11-5] showed an IC50 of 240 nM. `CCN(CCCCCN1C(=O)c2ccc(NS(C)(=O)=O)cc2C1=O)Cc1ccccc1` [Compound 11-6] was tested, and the IC50 was 470 nM. Molecule `CCN(CCCCCN1C(=O)c2cccc([N+](=O)[O-])c2C1=O)Cc1ccccc1` [Compound 12-3] has an IC50 of 680 nM. `CCN(CCCCCN1C(=O)c2ccc(O)cc2C1=O)Cc1ccccc1` [Compound 12-4] gave an IC50 of 2500 nM. Molecule `CCN(CCCCCN1C(=O)c2ccc(OC(C)=O)cc2C1=O)Cc1ccccc1` [Compound 12-5] has an IC50 of 2100 nM. Molecule `CCN(CCCCCN1C(=O)c2ccc(OC)cc2C1=O)Cc1ccccc1` [Compound 12-6] has an IC50 of 710 nM. `CCN(CCCCCN1C(=O)c2ccc(Cl)cc2C1=O)Cc1ccccc1` [Compound 12-7] was tested, and the IC50 was 1300 nM. For `CCN(CCCCCN1C(=O)c2ccc(C(=O)O)cc2C1=O)Cc1ccccc1` [Compound 12-8, 2-[5-(N-benzyl-N-ethyl)aminopentyl]-1,3-dioxo-1H-isoindole-5-carboxylic acid hydrochloride], the IC50 was 8800 nM. Work on `CCN(CCCCCN1C(=O)c2ccc(C(=O)N(CC)CC)cc2C1=O)Cc1ccccc1` [Compound 12-9] yielded an IC50 of 980 nM. `CCN(CCCCCN1C(=O)c2ccc(C(=O)c3ccccc3)cc2C1=O)Cc1ccccc1` [Compound 12-10] gave an IC50 of 1100 nM. `CCN(CCCCCN1C(=O)c2ccc(C)cc2C1=O)Cc1ccccc1` [Compound 12-11] was tested, and the IC50 was 1800 nM. Work on `CCN(CCCCCN1C(=O)c2ccc(OS(C)(=O)=O)cc2C1=O)Cc1ccccc1` [Compound 12-12] yielded an IC50 of 380 nM. For `CCN(CCCCCN1C(=O)c2ccc(C(=O)NC)cc2C1=O)Cc1ccccc1` [Compound 12-13], the IC50 was 380 nM. With `CCN(CCCCCN1C(=O)c2ccc(C(=O)OC)cc2C1=O)Cc1ccccc1` [Compound 13, Methyl 2-[5-(N-benzyl-N-ethyl)aminopentyl]-1,3(2H)-dioxo-1H-isoindole-5-carboxylate hydrochloride] the IC50 was 580 nM. Work on `CN(CCCCNC(=O)/C=C/c1cccc([N+](=O)[O-])c1)Cc1ccccc1` [Compound 14-1] yielded an IC50 of 13000 nM. With `CN(CCCCNC(=O)/C=C/c1ccccc1[N+](=O)[O-])Cc1ccccc1` [Compound 14-2] the IC50 was 18000 nM. For `CCN(CCCNC(=O)/C=C/c1ccc([N+](=O)[O-])cc1)Cc1ccccc1` [Compound 14-9], the IC50 was 11000 nM. `CCN(CCCCCCCNC(=O)/C=C/c1ccc([N+](=O)[O-])cc1)Cc1ccccc1` [Compound 14-10] showed an IC50 of 15000 nM. In the case of `CCN(CCCCCNC(=O)/C=C/c1ccc(OC)c(OC)c1)Cc1ccccc1` [Compound 14-11], the IC50 is reported as 5400 nM. `CCN(CCCCCNC(=O)/C=C/c1ccccc1[N+](=O)[O-])Cc1ccccc1` [Compound 14-12] gave an IC50 of 3900 nM. Molecule `CCN(CCCCCNC(=O)/C=C/c1cccc([N+](=O)[O-])c1)Cc1ccccc1` [Compound 14-13] has an IC50 of 3000 nM. `CCN(CCCCCNC(=O)/C=C/c1ccc(Cl)cc1)Cc1ccccc1` [Compound 14-14] showed an IC50 of 16000 nM. Molecule `CCN(CCCCCNC(=O)/C=C/c1ccc(C)cc1)Cc1ccccc1` [Compound 14-15] has an IC50 of 16000 nM. In the case of `CCN(CCCCCNC(=O)/C=C/c1ccc(C#N)cc1)Cc1ccccc1` [Compound 14-16], the IC50 is reported as 5000 nM. Work on `CCN(CCCCCNC(=O)/C=C/c1ccc(O)cc1)Cc1ccccc1` [Compound 14-17] yielded an IC50 of 13000 nM. `CCN(CCCCCNC(=O)/C=C/c1ccc(OC)cc1)Cc1ccccc1` [Compound 14-18] showed an IC50 of 16000 nM. `CCN(CCCCCNC(=O)/C=C/c1cccc(OC)c1)Cc1ccccc1` [Compound 14-19] showed an IC50 of 9300 nM. `CCN(CCCCCNC(=O)/C=C/c1ccc(SC)cc1)Cc1ccccc1` [Compound 14-20] was tested, and the IC50 was 21000 nM. With `CCN(CCCCCNC(=O)/C=C/c1ccc([S+](C)[O-])cc1)Cc1ccccc1` (stereo not shown) [Compound 14-21] the IC50 was 7500 nM. `CCN(CCCCCNC(=O)/C=C/c1ccc(S(C)(=O)=O)cc1)Cc1ccccc1` [Compound 14-22] showed an IC50 of 3200 nM. `CCN(CCCCCNC(=O)/C=C/c1cc(OC)c(OC)c(OC)c1)Cc1ccccc1` [Compound 14-23] was tested, and the IC50 was 4100 nM. For `CCN(CCCCCNC(=O)/C=C/c1ccc([N+](=O)[O-])c(O)c1)Cc1ccccc1` [Compound 14-24], the IC50 was 170 nM. `CCN(CCCCCNC(=O)/C=C/c1ccc(Cl)c([N+](=O)[O-])c1)Cc1ccccc1` [Compound 14-25] was tested, and the IC50 was 1900 nM.
